Values quoted from earlier work in US20110053874A1, “USE OF FLAVONOIDE COMPOUNDS FOR THE PROPHYLAXIS AND THERAPY OF ISCHAEMIC OR INFLAMMATORY HEART AND CARDIOVASCULAR DISEASES” (BOEHRINGER INGELHEIM INTERNATIONAL GMBH, priority 2008, published 2011).

Legend:
[1] = in vivo
[2] = human, oral

Compound	absorption [1]	form present in the plasma after being taken orally and absorbed through the intestine [2]
O=c1c(O)c(-c2ccc(O)c(O)c2)oc2cc(O)cc(O)c12 [Quercetin]	only absorbed to a small extent	
O=c1c(O[C@@H]2O[C@H](CO)[C@@H](O)[C@H](O)[C@H]2O)c(-c2ccc(O)cc2)oc2cc(O)cc(O)c12 [kaempferol glucoside, kaempferol-3-O-β-D-glucoside]		almost completely in the form of their respective glucuronides
O=c1c(O[C@@H]2O[C@H](CO)[C@@H](O)[C@H](O)[C@H]2O)c(-c2ccc(O)c(O)c2)oc2cc(O)cc(O)c12 [quercetin glucoside, quercetin-3-O-β-D-glucoside]		almost completely in the form of their respective glucuronides
